Earlier results on 23 molecules are cited in publication PMC6838683, “Discovery of Human Signaling Systems: Pairing Peptides to G Protein-Coupled Receptors” (Cell, 2019).

Like-named read-outs stand apart in the source and are kept apart here.

The test system of this data set is human GPCRs. More on the design: method as in Guide to Pharmacology database. The following applies: max reported value, ref Guide to Pharmacology database, cited from earlier work. The text has this: Supplement mmc1.xlsx, sheet "HumanGPCRLigands" | column: pKi_value; pKd_value; pEC50_value; pIC50_value
Where [1] appears, read: receptor p2ry2_human (P2RY2), P2Y receptors.
The mark [2] stands for this setting: receptor p2ry4_human (P2RY4), P2Y receptors.
[3] abbreviates: receptor p2y11_human (P2RY11), P2Y receptors.
[4] abbreviates: receptor gp183_human (GPR183), Class A orphans.
Setting [5] is: receptor LTB4R2 (lt4r2_human, Q9NPC1).
The mark [6] stands for this setting: receptor LTB4R (lt4r1_human, Q15722).
[7] abbreviates: receptor p2ry1_human (P2RY1), P2Y receptors.
The mark [8] stands for this setting: receptor p2y13_human (P2RY13), P2Y receptors.
[9] abbreviates: receptor grm2_human (GRM2, Q14416).
Where [10] appears, read: receptor grm3_human (GRM3, Q14832).
[11] abbreviates: receptor grm7_human (GRM7, Q14831).
The mark [12] stands for this setting: receptor grm8_human (GRM8, O00222).
Setting [13] is: receptor CYSLTR1 (cltr1_human, Q9Y271).
[14] abbreviates: receptor CYSLTR2 (cltr2_human, Q9NS75).
Where [15] appears, read: receptor fpr2_human (FPR2, P25090).
[16] abbreviates: receptor PTAFR (ptafr_human, P25105).
The mark [17] stands for this setting: receptor PTGDR2 (pd2r2_human, Q9Y5Y4).
Setting [18] is: receptor PTGDR (pd2r_human, Q13258).
[19] abbreviates: receptor pe2r2_human (PTGER2), Prostanoid receptors.
Where [20] appears, read: receptor pe2r4_human (PTGER4), Prostanoid receptors.
The mark [21] stands for this setting: receptor pf2r_human (PTGFR), Prostanoid receptors.
Setting [22] is: receptor pe2r1_human (PTGER1), Prostanoid receptors.
Setting [23] is: receptor pe2r3_human (PTGER3), Prostanoid receptors.
Setting [24] is: receptor ta2r_human (TBXA2R), Prostanoid receptors.

As to `O=c1ccn([C@@H]2O[C@H](CO[P@@](=O)(O)O[P@@](=O)(O)OP(=O)(O)O)[C@@H](O)[C@H]2O)c(=O)[nH]1` (stereo in doubt) [uridine triphosphate], the pEC50_value was 8.1 under setting [1]; 6.3 under setting [2]; 5.2 (receptor p2ry6_human (P2RY6), P2Y receptors); 5.2 under setting [3].
Regarding `CCCCCC(O)CC(=O)O` (centres unmarked) [3-hydroxyoctanoic acid], for the setting “receptor hcar3_human (HCAR3), Hydroxycarboxylic acid receptors”, the pEC50_value is reported as 5.1.
For `CCCCCCCC/C=C\C/C=C\C=C/C(=O)CCCC(=O)O` [5-oxo-C20:3], the pEC50_value (receptor OXER1 (oxer1_human, Q8TDS5)) is given as 8.
`C[C@H](CCCC(C)(C)O)[C@H]1CC[C@H]2[C@@H]3[C@H](O)C=C4C[C@@H](O)CC[C@]4(C)[C@H]3CC[C@]12C` [7α,25-dihydroxycholesterol]: under setting [4], the pEC50_value was 9.9 and the pIC50_value is 9.6.
With `CCCCCC(O)C=CC=CCC=CCCCC(=O)O` (centres unmarked) [12-hydroxyheptadecatrienoic acid], under setting [5], the pEC50_value is reported as 7.7 and the pIC50_value is 8.6.
Regarding `C[C@]12CC[C@@H]3c4ccc(O)cc4CC[C@H]3[C@@H]1CC[C@@H]2O` [17β-estradiol], the pKi_value (receptor gper1_human (GPER1), Estrogen (G protein-coupled) receptors) was 8.5.
As to `O=C(O)CCC[C@H](O)\C=C/C=C/C=C/[C@H](O)C/C=C\CCCCCO` [20-hydroxy-LTB4], the pKi_value under setting [6] is 8.1.
Turning to `NC[C@H](O)c1ccc(O)c(O)c1` [(-)-noradrenaline], the pKi_value (receptor ada1a_human (ADRA1A, P35348)) was 6.4; the pKi_value (receptor ada1b_human (ADRA1B, P35368)) is 6.2; the pKi_value (receptor ada1d_human (ADRA1D, P25100)) is on record as 7.4; the pKi_value (receptor ada2a_human (ADRA2A, P08913)) is 7.4; the pKi_value (receptor ada2b_human (ADRA2B, P18089)) is on record as 6; the pKi_value (receptor ada2c_human (ADRA2C, P18825)) is reported as 6.8. The pKi_value was 6 (receptor adrb1_human (ADRB1, P08588)); 4.8 (receptor adrb2_human (ADRB2, P07550)); 6.3 (receptor adrb3_human (ADRB3, P13945)).
As to `Nc1ncnc2c1ncn2[C@@H]1O[C@H](COP(=O)(O)OP(=O)(O)O)[C@@H](O)[C@H]1O` [ADP], the pIC50_value was 7.2 under setting [7] and 6.5 under setting [8]. Also, under “receptor p2y12_human (P2RY12), P2Y receptors”, the pKi_value is on record as 5.9.
With `Nc1ncnc2c1ncn2[C@@H]1O[C@H](COP(=O)(O)OP(=O)(O)OP(=O)(O)O)[C@@H](O)[C@H]1O` [ATP], the pIC50_value is listed as 7.8 under setting [7] and 5.4 under setting [8]. For the same molecule, the pKi_value under setting [7] is reported as 4.8. Moreover, the pEC50_value was 7.1 under setting [1], 5.4 under setting [2] and 5.6 under setting [3]. For the same molecule, the pKd_value under setting [2] is given as 6.2.
In the case of `N[C@@H](CCC(=O)O)C(=O)O` [L-glutamic acid], the pEC50_value (receptor grm1_human (GRM1, Q13255)) is given as 5; the pEC50_value under setting [9] was 5.4; the pEC50_value under setting [10] was 5.4; the pEC50_value (receptor grm4_human (GRM4, Q14833)) was 5.5; the pEC50_value (receptor grm5_human (GRM5, P41594)) is 5.5; the pEC50_value (receptor grm6_human (GRM6, O15303)) is given as 5.2. Besides, the pEC50_value is, setting by setting: under setting [11], 3; under setting [12], 5.6. In addition, the pKi_value under setting [9] is 4.9, the pKi_value under setting [10] is reported as 7.4 and the pKi_value under setting [11] is reported as 3.1. Moreover, the pIC50_value under setting [12] is 5.7.
For `C[C@H](O)C(=O)O` [L-lactic acid], the pEC50_value (receptor hcar1_human (HCAR1), Hydroxycarboxylic acid receptors) is on record as 2.9.
As to `CCCCC/C=C\C[C@@H](O)/C=C/C=C/C=C\[C@@H](O)CCCC(=O)O` [LTB4], under setting [5], the pEC50_value is 6.8, the pIC50_value was 7.6 and the pKd_value is given as 7.6. Also, under setting [6], the pKi_value is on record as 9.4.
In the case of `CCCCC/C=C\C\C=C/C=C/C=C/[C@@H](SC[C@H](NC(=O)CC[C@H](N)C(=O)O)C(=O)NCC(=O)O)[C@@H](O)CCCC(=O)O` [LTC4], under setting [13], the pEC50_value is recorded as 7.7, the pIC50_value is 6.5 and the pKi_value is recorded as 8.1. Also, under setting [14], the pEC50_value is on record as 7.3 and the pIC50_value is 8.5.
As to `CCCCC/C=C\C\C=C/C=C/C=C/[C@@H](SC[C@H](N)C(=O)NCC(=O)O)[C@@H](O)CCCC(=O)O` [LTD4], under setting [13], the pEC50_value was 8.5 and the pIC50_value is on record as 8.1. Besides, under setting [14], the pEC50_value was 7.4, the pIC50_value is 8.1 and the pKi_value was 8.1.
For the molecule `CCCCC/C=C\C\C=C/C=C/C=C/[C@@H](SC[C@H](N)C(=O)O)[C@@H](O)CCCC(=O)O` [LTE4], under setting [13], the pEC50_value is reported as 6.7, the pIC50_value was 7 and the pKi_value is recorded as 7.8. Under setting [14], the pEC50_value is recorded as 5.9, the pIC50_value is recorded as 5.7 and the pKi_value is listed as 6.5.
Take `CCCCC[C@H](O)/C=C/C=C\C=C\C=C\[C@@H](O)[C@@H](O)CCCC(=O)O` [LXA4]: under setting [15], the pEC50_value is 12 and the pKd_value was 9.3.
With `CCCCCCCC/C=C\CCCCCCCC(=O)NCCO` [N-oleoylethanolamide], where the note is “receptor GPR119 (gp119_human, Q8TDV5)”, the pEC50_value was 6.3.
For the molecule `CCCCCCCCCCCCCCCCOC[C@H](COP(=O)([O-])OCC[N+](C)(C)C)OC(C)=O` [PAF], under setting [16], the pIC50_value was 8.2 and the pKi_value is listed as 7.9.
Regarding `CCCCC[C@H](O)/C=C/[C@H]1C(=O)C[C@H](O)[C@@H]1C/C=C\CCCC(=O)O` [PGD2], the pKi_value is reported as 8.6 under setting [17]; 9.2 under setting [18]; 4.7 (receptor PTGER1 (pe2r1_human, P34995)); 5 under setting [19]; 9 under setting [20]; 7.7 under setting [21]. Further, under setting [20], the pEC50_value is given as 8.8.
Turning to `CCCCC[C@H](O)/C=C/[C@H]1[C@H](O)CC(=O)[C@@H]1C/C=C\CCCC(=O)O` [PGE2], the pKi_value by setting is: under setting [17], 5.3; under setting [18], 7; under setting [22], 8; under setting [19], 8.3; under setting [23], 9.5; under setting [20], 9.1. The pKi_value reads like this: under setting [21], 6.9; under setting [24], 4.5. Besides, the pKd_value under setting [23] is 8.7. The pEC50_value under setting [20] is listed as 6.1.
Consider `CCCCC[C@H](O)/C=C/[C@@H]1[C@@H](C/C=C\CCCC(=O)O)[C@@H](O)C[C@H]1O` [PGF2α], for which the pKi_value reads like this: under setting [17], 6.4; under setting [18], 6.4; under setting [22], 6.3; under setting [19], 6; under setting [23], 7.4; under setting [20], 9.5. Further, the pKi_value under setting [21] is recorded as 8.5 and the pKi_value under setting [24] is given as 5.1. In addition, under setting [20], the pEC50_value is reported as 6.1.
For the molecule `CCCCC[C@H](O)/C=C/[C@@H]1[C@H]2C/C(=C/CCCC(=O)O)O[C@H]2C[C@H]1O` [PGI2], the pKi_value is recorded as 4.8 under setting [22]; 5.1 under setting [20]; 7.8 (receptor pi2r_human (PTGIR), Prostanoid receptors).
